Laboratory results from patent US7008633B2 (priority 2000, dated 2006).
Counter-ions that a name gives are not always drawn. Numbered stars: 1 amine (or outer) side, 2 acyl side, 3 side chain; on linkers, the order of the positions; unused ones are H or OH. Bridge positions count the residues as written; N and C are the ends. Square brackets hold non-standard residues; d marks the D form. Peptide text beside a SMILES is read from it. I, II: the chains in the order shown. Actinocin(9to1) = Cc1c2oc3c(C)ccc(C(=O)[*:1])c3nc-2c(C(=O)[*:2])c(N)c1=O; NMeV = CN[C@H](C(=O)O)C(C)C; Sar = CNCC(=O)O

What was measured:
[1] = in vivo, cited from earlier work
[2] = In vitro slow release of cisplatin from alginate beads; assay type: physicochemical; settings: incubated in PBS at 37° C.
Description: To study in vitro slow release of an anticancer drug from a polymer, the anticancer drug cisplatin and the polymer sodium alginate were tested for slow release of the drug. Cisplatin-loaded alginate beads (SA-CDDP) were formed instantly and then incubated in phosphate-buffered saline (PBS) in tubes at 37° C. Cisplatin was completely released from the alginate beads in 15 hours, which is considerably slower than the release time (within 2.5 hours) of cisplatin powder only (control) (FIG. 1).

[3] = Blood chemical assay (BUN, serum creatinine) to detect renal toxicity; assay type: in vivo, rat; settings: for BUN / SERUM CREATININE: intratumoral 3 MG/KD, breast tumor-bearing rats
Description: The SA-CDDP (0.1 ml; cisplatin dose was 3 mg/kg body weight) was injected directly into the tumors through 27 G needles. In a preferred embodiment, about […] SA is used per injection. Calcium chloride (8% in water) was then injected into the same place to form cisplatin-loaded alginate beads in the tumors. The tumor size was measured to determine the anticancer effect, and the blood chemical assay (blood urea nitrogen [BUN] and serum creatinine) were performed to detect renal toxicity.
On day 40, BUN in five experimental rats and five healthy rats (control) were 18.30±1.51 mg/dl and 17.88±2.24 mg/dl, respectively. There was no statistical significance (p>0.05) between the two. Serum creatinine levels were the same as in both experimental and control rats (0.6 mg/dl).

multiple myeloma = settings: oral administration; cited from earlier work
[4] = in vivo; cited from earlier work

Cc1c2oc3c(C)ccc(C(=O)N[C@@H]4C(=O)N[C@H](C(C)C)C(=O)N5CCC[C@H]5C(=O)N(C)CC(=O)N(C)[C@@H](C(C)C)C(=O)O[C@@H]4C)c3nc-2c(C(=O)N[C@@H]2C(=O)N[C@H](C(C)C)C(=O)N3CCC[C@H]3C(=O)N(C)CC(=O)N(C)[C@@H](C(C)C)C(=O)O[C@@H]2C)c(N)c1=O [Actinomycin D] (I: T[dV]P[Sar][NMeV] / II: T[dV]P[Sar][NMeV]; ester I:1-I:C, II:1-II:C; linker I:N-II:N via Actinocin(9to1))
share of the dose excreted intact into the bile [1]: Half of the dose
share of the dose excreted or detected intact in the urine [1]: 10%

[NH2][Pt]([NH2])([Cl])[Cl] [CDDP, cisplatin]
time to complete release of cisplatin [2]: ≤ 2.5 h
nephrotoxicity ([3]; CDDP intratumorally): a clear nephrotoxicity was observed
BUN ([3]; day 2): 56.21 mg/dL
SERUM CREATININE ([3]; day 2): 1.5 mg/dL
BUN ([3]; day 5): 246.42 mg/dL
SERUM CREATININE ([3]; day 5): 7.03 mg/dL
BUN ([3]; day 7): 152.35 mg/dL
SERUM CREATININE ([3]; day 7): 2.4 mg/dL
BUN ([3]; day 16): 41.75 mg/dL
SERUM CREATININE ([3]; day 16): 0.7 mg/dL
oral absorption ([1]; po): not absorbed orally

COc1cccc2c1C(=O)c1c(O)c3c(c(O)c1C2=O)C[C@@](O)(C(C)=O)C[C@@H]3O[C@H]1C[C@H](N)[C@H](O)[C@H](C)O1 [Daunorubicin, 5,12-Naphthacenedione, (8S-cis)-8-acetyl-10-[(3-amino-2,3,6-trideoxy-a-L-lyxo-hexanopyranosyl)oxy]-7,8,9,10-tetrahydro-6,8,11-trihydroxy-10-methoxy-, hydrochloride]
oral absorption ([1]; po): Oral absorption is poor

O=NN(CCCl)C(=O)NC1CCCCC1 [Lomustine, 1-(2-chloro-ethyl)-3-cyclohexyl-1 nitrosourea]
radioactivity excreted in the form of degradation products ([1]; po): about half

N[C@@H](Cc1ccc(N(CCCl)CCCl)cc1)C(=O)O [Melphalan, 4-[bis(2-chloroethyl)amino]-L-phenylalanine]
share of patients with a favorable response (multiple myeloma): about one third to one half

CO[C@@]12[C@H](COC(N)=O)C3=C(C(=O)C(C)=C(N)C3=O)N1C[C@@H]1N[C@@H]12 [Mitomycin]
share of a dose excreted unchanged in the urine [4]: Approximately 10%

CC[C@]1(O)C[C@@H]2CN(CCc3c([nH]c4ccccc34)[C@@](C(=O)OC)(c3cc4c(cc3OC)N(C)[C@H]3[C@@](O)(C(=O)OC)[C@H](OC(C)=O)[C@]5(CC)C=CCN6CC[C@]43[C@@H]65)C2)C1 [Vinblastine]
share of the dose excreted or detected intact in the urine [1]: Approximately 15%
